Test results reported in ChEMBL document CHEMBL4800722, “Data for DCP probe BI 605906” (2021).

What was measured:
[1] = biological target: Dual specificity tyrosine-phosphorylation-regulated kinase 1B (Homo sapiens) (UniProt Q9Y463)
[2] = biological target: Serotonin 3 (5-HT3) receptor (Homo sapiens) (UniProt P46098+A5X5Y0+O95264+Q70Z44+Q8WXA8); assay: 5HT3/HU Eurofins SafetyScreen44 (BI); assay type: protein-complex assay; conditions: Compound concentration 10.0 uM
[3] = biological target: Serine/threonine-protein kinase BRSK1 (Homo sapiens) (UniProt Q8TDC3); conditions: Compound concentration 1.0 uM
[4] = biological target: Polyunsaturated fatty acid lipoxygenase ALOX12 (Homo sapiens) (UniProt P18054); conditions: Compound concentration 10.0 uM
[5] = biological target: Tyrosine-protein kinase Lyn (Homo sapiens) (UniProt P07948); conditions: Compound concentration 1.0 uM
[6] = biological target: Cannabinoid receptor 2 (Homo sapiens) (UniProt P34972); conditions: Compound concentration 10.0 uM
[7] = biological target: Inhibitor of nuclear factor kappa-B kinase subunit beta (Homo sapiens) (UniProt O14920)
Sequence of Inhibitor of nuclear factor kappa-B kinase subunit beta (Homo sapiens) (O14920 whole entry): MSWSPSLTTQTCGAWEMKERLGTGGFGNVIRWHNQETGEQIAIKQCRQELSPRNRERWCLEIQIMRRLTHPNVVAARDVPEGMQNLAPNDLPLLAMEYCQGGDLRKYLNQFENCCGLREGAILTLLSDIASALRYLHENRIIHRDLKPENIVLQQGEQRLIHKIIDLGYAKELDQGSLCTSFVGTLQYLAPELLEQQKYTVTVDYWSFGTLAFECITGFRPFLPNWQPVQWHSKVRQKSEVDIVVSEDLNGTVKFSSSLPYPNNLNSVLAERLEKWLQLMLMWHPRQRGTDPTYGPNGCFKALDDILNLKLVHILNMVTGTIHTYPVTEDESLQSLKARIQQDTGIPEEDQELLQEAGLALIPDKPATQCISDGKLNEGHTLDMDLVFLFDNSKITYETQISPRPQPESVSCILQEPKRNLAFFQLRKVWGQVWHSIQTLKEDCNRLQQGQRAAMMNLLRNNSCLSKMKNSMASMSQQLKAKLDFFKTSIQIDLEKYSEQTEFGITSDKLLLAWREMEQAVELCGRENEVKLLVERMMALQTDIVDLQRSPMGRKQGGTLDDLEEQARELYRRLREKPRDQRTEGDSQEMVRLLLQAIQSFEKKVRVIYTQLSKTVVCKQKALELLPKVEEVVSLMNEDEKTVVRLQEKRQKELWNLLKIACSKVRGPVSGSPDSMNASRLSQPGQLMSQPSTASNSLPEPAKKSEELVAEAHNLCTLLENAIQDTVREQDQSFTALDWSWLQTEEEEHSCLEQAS

[8] = biological target: Rho-associated protein kinase 1 (Homo sapiens) (UniProt Q13464); assay: ROCK1 Invitrogen Lab (UK) kinase screen (BI)
Sequence of Rho-associated protein kinase 1 (Homo sapiens) (Q13464 2-1354 limits assumed): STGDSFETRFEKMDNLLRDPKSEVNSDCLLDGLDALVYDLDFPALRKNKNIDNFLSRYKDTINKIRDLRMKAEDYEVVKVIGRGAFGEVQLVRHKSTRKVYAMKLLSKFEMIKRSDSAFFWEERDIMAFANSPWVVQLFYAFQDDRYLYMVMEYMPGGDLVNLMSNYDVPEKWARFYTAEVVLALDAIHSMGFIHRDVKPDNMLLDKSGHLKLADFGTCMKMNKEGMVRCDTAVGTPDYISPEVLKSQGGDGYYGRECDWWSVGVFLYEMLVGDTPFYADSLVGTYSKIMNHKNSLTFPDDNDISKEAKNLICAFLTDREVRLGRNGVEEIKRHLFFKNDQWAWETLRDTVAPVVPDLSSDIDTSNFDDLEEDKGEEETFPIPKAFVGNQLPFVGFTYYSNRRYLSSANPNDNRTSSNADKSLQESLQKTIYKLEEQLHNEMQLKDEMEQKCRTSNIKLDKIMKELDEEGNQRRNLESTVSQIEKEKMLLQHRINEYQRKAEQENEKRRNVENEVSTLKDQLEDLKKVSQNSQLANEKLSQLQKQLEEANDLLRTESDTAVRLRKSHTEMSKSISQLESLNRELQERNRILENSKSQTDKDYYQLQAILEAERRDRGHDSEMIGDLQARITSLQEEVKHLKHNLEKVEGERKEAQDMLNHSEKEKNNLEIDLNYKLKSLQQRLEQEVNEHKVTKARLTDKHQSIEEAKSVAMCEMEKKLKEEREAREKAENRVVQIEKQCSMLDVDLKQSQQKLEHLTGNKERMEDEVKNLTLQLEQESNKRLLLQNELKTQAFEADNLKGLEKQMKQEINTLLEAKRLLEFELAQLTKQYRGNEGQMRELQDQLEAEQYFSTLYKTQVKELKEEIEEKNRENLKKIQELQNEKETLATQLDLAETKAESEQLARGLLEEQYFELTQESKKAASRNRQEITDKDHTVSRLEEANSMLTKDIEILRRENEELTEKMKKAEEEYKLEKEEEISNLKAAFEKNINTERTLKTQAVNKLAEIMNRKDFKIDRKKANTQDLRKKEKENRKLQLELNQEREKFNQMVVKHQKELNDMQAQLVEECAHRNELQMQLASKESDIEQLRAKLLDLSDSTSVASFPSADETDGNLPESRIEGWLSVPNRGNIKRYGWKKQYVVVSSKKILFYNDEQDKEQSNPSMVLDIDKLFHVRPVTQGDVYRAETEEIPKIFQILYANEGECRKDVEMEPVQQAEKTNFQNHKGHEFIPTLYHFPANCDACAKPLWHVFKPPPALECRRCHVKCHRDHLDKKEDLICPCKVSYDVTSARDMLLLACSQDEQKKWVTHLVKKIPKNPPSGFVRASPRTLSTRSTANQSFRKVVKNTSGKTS

[9] = biological target: Myosin light chain kinase, smooth muscle (Homo sapiens) (UniProt Q15746); conditions: Compound concentration 1.0 uM
[10] = biological target: Mitogen-activated protein kinase 8 (Homo sapiens) (UniProt P45983)
Sequence of Mitogen-activated protein kinase 8 (Homo sapiens) (P45983 whole entry): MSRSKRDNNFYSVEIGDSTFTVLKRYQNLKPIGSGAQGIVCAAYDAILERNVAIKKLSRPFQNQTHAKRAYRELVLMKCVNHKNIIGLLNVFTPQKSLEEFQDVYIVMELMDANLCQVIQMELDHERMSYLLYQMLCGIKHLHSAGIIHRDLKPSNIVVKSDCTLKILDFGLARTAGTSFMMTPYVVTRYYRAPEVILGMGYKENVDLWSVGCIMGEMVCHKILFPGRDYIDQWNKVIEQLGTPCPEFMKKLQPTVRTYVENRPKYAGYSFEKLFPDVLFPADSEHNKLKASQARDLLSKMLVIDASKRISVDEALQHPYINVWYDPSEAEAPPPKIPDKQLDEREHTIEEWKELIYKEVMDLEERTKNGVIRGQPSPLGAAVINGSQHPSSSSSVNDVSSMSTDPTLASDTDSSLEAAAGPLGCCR

[11] = biological target: PI3K p110 beta/p85 alpha (Homo sapiens) (UniProt P27986+P42338); assay: PIK3CBPIK3RI Invitrogen Lab (UK) kinase screen (BI); assay type: protein-complex assay; conditions: Compound concentration 1.0 uM
[12] = biological target: Mitogen-activated protein kinase kinase kinase 20 (Homo sapiens) (UniProt Q9NYL2); conditions: Compound concentration 1.0 uM
[13] = biological target: Ephrin type-B receptor 2 (Homo sapiens) (UniProt P29323); conditions: Compound concentration 1.0 uM
[14] = biological target: Insulin receptor (Homo sapiens) (UniProt P06213)
Sequence of Insulin receptor (Homo sapiens) (P06213 28-758 limits assumed): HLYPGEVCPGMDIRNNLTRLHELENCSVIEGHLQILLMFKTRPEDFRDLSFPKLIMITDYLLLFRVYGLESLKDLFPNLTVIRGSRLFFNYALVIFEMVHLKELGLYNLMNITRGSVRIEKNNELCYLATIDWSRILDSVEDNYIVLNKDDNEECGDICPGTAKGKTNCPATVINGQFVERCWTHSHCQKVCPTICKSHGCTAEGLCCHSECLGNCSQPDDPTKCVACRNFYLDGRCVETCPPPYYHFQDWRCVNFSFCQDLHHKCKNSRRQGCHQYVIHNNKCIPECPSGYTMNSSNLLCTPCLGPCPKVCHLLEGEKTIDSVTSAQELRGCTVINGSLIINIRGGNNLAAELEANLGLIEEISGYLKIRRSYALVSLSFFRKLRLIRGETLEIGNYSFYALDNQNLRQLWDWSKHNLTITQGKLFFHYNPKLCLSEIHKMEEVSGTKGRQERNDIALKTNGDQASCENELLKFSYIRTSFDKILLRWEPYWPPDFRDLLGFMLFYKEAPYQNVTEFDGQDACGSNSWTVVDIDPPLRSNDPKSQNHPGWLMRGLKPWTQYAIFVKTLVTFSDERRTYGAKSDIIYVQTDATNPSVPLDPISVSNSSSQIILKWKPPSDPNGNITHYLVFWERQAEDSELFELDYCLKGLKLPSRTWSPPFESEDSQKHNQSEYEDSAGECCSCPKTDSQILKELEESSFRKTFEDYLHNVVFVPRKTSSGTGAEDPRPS
Sequence of Insulin receptor (Homo sapiens) (P06213 763-1382 limits assumed): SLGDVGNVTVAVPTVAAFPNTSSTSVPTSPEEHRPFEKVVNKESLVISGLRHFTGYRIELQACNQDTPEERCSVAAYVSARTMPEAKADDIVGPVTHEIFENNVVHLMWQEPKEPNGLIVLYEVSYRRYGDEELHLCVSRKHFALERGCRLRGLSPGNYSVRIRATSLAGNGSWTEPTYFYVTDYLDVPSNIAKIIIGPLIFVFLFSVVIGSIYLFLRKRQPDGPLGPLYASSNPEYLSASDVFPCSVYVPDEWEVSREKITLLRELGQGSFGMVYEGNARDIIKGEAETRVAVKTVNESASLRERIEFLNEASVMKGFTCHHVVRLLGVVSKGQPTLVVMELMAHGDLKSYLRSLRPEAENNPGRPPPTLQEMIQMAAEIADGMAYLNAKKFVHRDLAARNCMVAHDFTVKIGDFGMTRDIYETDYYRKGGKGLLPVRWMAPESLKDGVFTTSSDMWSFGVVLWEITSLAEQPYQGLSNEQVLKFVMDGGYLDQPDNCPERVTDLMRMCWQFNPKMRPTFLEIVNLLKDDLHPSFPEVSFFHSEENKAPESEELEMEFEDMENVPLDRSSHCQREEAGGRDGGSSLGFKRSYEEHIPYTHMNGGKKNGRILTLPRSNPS

[15] = biological target: MAP kinase-activated protein kinase 3 (Homo sapiens) (UniProt Q16644); assay: MAPKAP-K3 DUNDEE kinase screen (BI); conditions: Compound concentration 10.0 uM
[16] = biological target: Mitogen-activated protein kinase 10 (Homo sapiens) (UniProt P53779); assay: JNK3 ALPHA 1 DUNDEE kinase screen (BI); conditions: Compound concentration 10.0 uM
Sequence of Mitogen-activated protein kinase 10 (Homo sapiens) (P53779 whole entry): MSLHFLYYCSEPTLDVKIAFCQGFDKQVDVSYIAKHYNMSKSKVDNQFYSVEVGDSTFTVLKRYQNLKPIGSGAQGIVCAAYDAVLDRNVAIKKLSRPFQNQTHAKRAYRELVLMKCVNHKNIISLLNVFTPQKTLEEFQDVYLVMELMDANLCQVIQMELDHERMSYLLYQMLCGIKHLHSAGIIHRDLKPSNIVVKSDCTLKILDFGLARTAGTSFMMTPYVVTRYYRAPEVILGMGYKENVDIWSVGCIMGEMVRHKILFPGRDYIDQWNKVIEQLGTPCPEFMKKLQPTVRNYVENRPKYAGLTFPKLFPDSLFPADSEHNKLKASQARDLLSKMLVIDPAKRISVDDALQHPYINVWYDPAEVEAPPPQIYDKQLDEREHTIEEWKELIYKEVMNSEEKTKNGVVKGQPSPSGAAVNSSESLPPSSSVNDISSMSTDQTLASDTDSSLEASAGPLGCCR

[17] = biological target: Fibroblast growth factor receptor 2 (Homo sapiens) (UniProt P21802); conditions: Compound concentration 1.0 uM
[18] = biological target: Peripheral plasma membrane protein CASK (Homo sapiens) (UniProt O14936); assay: CASK Invitrogen Lab (UK) kinase screen (BI); conditions: Compound concentration 1.0 uM
[19] = biological target: Mitogen-activated protein kinase kinase kinase kinase 1 (Homo sapiens) (UniProt Q92918); conditions: Compound concentration 1.0 uM
[20] = biological target: Dual specificity testis-specific protein kinase 1 (Homo sapiens) (UniProt Q15569); conditions: Compound concentration 1.0 uM
[21] = biological target: Ribosomal protein S6 kinase alpha-3 (Homo sapiens) (UniProt P51812); assay: MAPKAP-K1B DUNDEE kinase screen (BI); conditions: Compound concentration 10.0 uM
[22] = biological target: Angiopoietin-1 receptor (Homo sapiens) (UniProt Q02763)
[23] = biological target: Lymphokine-activated killer T-cell-originated protein kinase (Homo sapiens) (UniProt Q96KB5); conditions: Compound concentration 10.0 uM
[24] = system: Receptor-type tyrosine-protein kinase FLT3 (Homo sapiens), P36888 [UNDEFINED MUTATION]; conditions: Compound concentration 1.0 uM
[25] = biological target: Mitogen-activated protein kinase kinase kinase 5 (Homo sapiens) (UniProt Q99683); conditions: Compound concentration 1.0 uM
[26] = biological target: Ribosomal protein S6 kinase beta-1 (Homo sapiens) (UniProt P23443); assay: S6K1 DUNDEE kinase screen (BI); conditions: Compound concentration 10.0 uM
[27] = biological target: Ephrin type-A receptor 4 (Homo sapiens) (UniProt P54764); conditions: Compound concentration 1.0 uM
[28] = biological target: Ephrin type-B receptor 1 (Homo sapiens) (UniProt P54762); assay: EPHB1 Invitrogen Lab (UK) kinase screen (BI); conditions: Compound concentration 1.0 uM
[29] = biological target: Nicotinic Acetylcholine Receptor (Homo sapiens) (UniProt P02708+P07510+P11230+P17787+P30926+P32297+P43681+Q07001+Q15822+Q9UGM1+Q15825+P30532+Q04844+P36544+Q9GZZ6+Q05901); conditions: Compound concentration 10.0 uM
[30] = biological target: Serine/threonine-protein kinase Sgk1 (Homo sapiens) (UniProt O00141); conditions: Compound concentration 1.0 uM
[31] = biological target: G protein-coupled receptor kinase 4 (Homo sapiens) (UniProt P32298); conditions: Compound concentration 1.0 uM
[32] = biological target: AMPK alpha1/beta1/gamma2 (Homo sapiens) (UniProt Q9UGJ0+Q9Y478+Q13131); conditions: Compound concentration 1.0 uM
[33] = biological target: Carbonic anhydrase (Homo sapiens) (UniProt P00918+P43166+P00915+P07451+P23280+O43570+Q9ULX7+Q16790+P22748+Q8N1Q1+Q9Y2D0+P35218); assay: CANHYDRASE Eurofins SafetyScreen44 (BI); assay type: protein assay; conditions: Compound concentration 10.0 uM
[34] = biological target: Serine/threonine-protein kinase TAO3 (Homo sapiens) (UniProt Q9H2K8); conditions: Compound concentration 1.0 uM
[35] = biological target: Prostaglandin G/H synthase 2 (Homo sapiens) (UniProt P35354); conditions: Compound concentration 10.0 uM
[36] = biological target: Sodium/potassium-transporting ATPase (Sus scrofa) (UniProt P05027+P05024+D2WKD8+D2WKD7+F1ST41); conditions: Compound concentration 10.0 uM
[37] = biological target: AP2-associated protein kinase 1 (Homo sapiens, UniProt Q2M2I8); assay: NanoBRET (SGC-FFM) (AAK1)
[38] = biological target: Serine/threonine-protein kinase WNK1 (Homo sapiens) (UniProt Q9H4A3); conditions: Compound concentration 1.0 uM
[39] = biological target: MAP kinase-activated protein kinase 2 (Homo sapiens) (UniProt P49137); assay: MAPKAPK2 DUNDEE kinase screen (BI); conditions: Compound concentration 10.0 uM
[40] = biological target: Interleukin-1 receptor-associated kinase 3 (Homo sapiens, UniProt Q9Y616); assay: Dose response measurement (IRAK3)

Sequence of Dual specificity tyrosine-phosphorylation-regulated kinase 1B (Homo sapiens) (Q9Y463 whole entry, looked up): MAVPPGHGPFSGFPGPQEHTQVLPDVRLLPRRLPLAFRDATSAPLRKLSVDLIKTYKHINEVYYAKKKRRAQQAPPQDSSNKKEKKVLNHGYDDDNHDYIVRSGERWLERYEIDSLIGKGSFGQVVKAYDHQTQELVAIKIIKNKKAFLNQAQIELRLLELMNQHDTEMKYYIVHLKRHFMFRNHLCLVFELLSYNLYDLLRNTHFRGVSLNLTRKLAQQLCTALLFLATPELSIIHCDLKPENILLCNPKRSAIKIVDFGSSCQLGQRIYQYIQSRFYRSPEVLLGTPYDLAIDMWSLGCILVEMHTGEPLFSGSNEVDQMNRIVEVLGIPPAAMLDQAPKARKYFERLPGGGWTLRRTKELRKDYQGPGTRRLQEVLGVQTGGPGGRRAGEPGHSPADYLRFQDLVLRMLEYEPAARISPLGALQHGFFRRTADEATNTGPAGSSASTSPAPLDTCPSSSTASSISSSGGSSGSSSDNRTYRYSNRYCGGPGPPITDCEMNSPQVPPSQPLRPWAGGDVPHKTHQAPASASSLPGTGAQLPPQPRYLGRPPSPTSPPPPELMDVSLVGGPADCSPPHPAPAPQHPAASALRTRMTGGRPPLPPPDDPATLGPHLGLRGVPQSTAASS

With CCC(F)(F)c1cc(N2CCC(S(C)(=O)=O)CC2)nc2sc(C(N)=O)c(N)c12 [BI-605906] the residual activity ([1]; Compound concentration 1.0 uM) was 95%, the residual activity ([1]; Compound concentration 10.0 uM) was 91% and the residual activity [2] was 84%. The residual activity [3] was 92%, the residual activity [4] was 96% and the residual activity [5] was 82%. The residual activity [6] was 91%, the residual activity ([7]; Compound concentration 1.0 uM) was 13.5% and the residual activity ([7]; Compound concentration 10.0 uM) was -1.5%. The residual activity ([8]; Compound concentration 1.0 uM) was 88%, the residual activity ([8]; Compound concentration 10.0 uM) was 47% and the residual activity [9] was 91%. For the same compound, the residual activity ([10]; Compound concentration 1.0 uM) was 91%, the residual activity ([10]; Compound concentration 10.0 uM) was 100% and the residual activity [11] was 124%. For the same compound, the residual activity [12] was 97%, the residual activity [13] was 89% and the residual activity ([14]; Compound concentration 1.0 uM) was 94%. For the same compound, the residual activity ([14]; Compound concentration 10.0 uM) was 93%, the residual activity [15] was 90.2% and the residual activity [16] was 72.4%. For the same compound, the residual activity [17] was 94%, the residual activity [18] was 52% and the residual activity [19] was 82%. It also gave a residual activity [20] of 92%, a residual activity [21] of 78.2% and a residual activity ([22]; Compound concentration 1.0 uM) of 93%. For the same compound, the residual activity ([22]; Compound concentration 10.0 uM) was 82%, the residual activity [23] was 100% and the residual activity [24] was 101%. For the same compound, the residual activity [25] was 99%, the residual activity [26] was 56.3% and the residual activity [27] was 93%. For the same compound, the residual activity [28] was 85%, the residual activity [29] was 101% and the residual activity [30] was 97%. The residual activity [31] was 100%, the residual activity [32] was 89% and the residual activity [33] was 86%. It also gave a residual activity [34] of 93%, a residual activity [35] of 82% and a residual activity [36] of 105%. The IC50 [37] was 7 µM (not active), the residual activity [38] was 99% and the residual activity [39] was 94.5%. The IC50 [40] was 0.921 µM (not active).
